Data on six molecules can be found in patent US9670261B2 (Sanofi, priority 2012, dated 2017).

SMILES strings stand for the structures. *1 amine or outer side, *2 acyl side, *3 side chain or, on linkers, in order; H or OH if unused. Where a SMILES comes first, the peptide text is derived from it. Side-chain parts run from the residue outwards. [ ]: non-standard residue; d: D form. The star is where a group is joined. γGlu = O=C(O)[C@H](CCC(=O)[*:2])N[*:1]; Stearoyl = CCCCCCCCCCCCCCCCCC(=O)*; Palmitoyl = CCCCCCCCCCCCCCCC(=O)*; Aib = CC(C)(N)C(=O)O

T1 sequence (P43220 24-463): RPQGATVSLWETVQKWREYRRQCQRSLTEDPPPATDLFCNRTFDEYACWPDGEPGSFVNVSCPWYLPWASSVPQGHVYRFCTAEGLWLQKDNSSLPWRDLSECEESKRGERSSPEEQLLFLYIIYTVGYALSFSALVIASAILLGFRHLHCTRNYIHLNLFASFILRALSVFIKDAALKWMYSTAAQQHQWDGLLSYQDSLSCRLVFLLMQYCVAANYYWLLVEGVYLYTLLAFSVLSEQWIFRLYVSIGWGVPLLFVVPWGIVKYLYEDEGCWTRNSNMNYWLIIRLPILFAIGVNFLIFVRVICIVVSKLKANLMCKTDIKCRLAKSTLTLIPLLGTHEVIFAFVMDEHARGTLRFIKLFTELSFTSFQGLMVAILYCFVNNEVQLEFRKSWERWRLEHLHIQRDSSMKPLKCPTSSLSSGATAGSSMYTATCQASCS

One assay has as its target T1, human GLP-1 receptor (Homo sapiens, UniProt P43220).
T1 construct: expressed in transfected cells
Description: cAMP response (HTRF) of HEK-293 cells stably expressing human GLP-1 receptor. Format: cell-based. The note with it: Table 7; cAMP formation; read-out: EC50 hGLP-1 R. As to the method: cAMP content of cells was determined using a kit from Cisbio Corp. (cat. no. 62AM4PEC) based on HTRF (Homogenous Time Resolved Fluorescence). For preparation, cells were split into T175 culture flasks and grown overnight to near confluency in medium (DMEM/10% FBS). Medium was then removed and cells washed with PBS lacking calcium and magnesium, followed by proteinase treatment with accutase (Sigma-Aldrich cat. no. A6964). Detached cells were washed and resuspended in assay buffer (1×HBSS; 20 mM HEPES, 0.1% BSA, 2 mM IBMX) and cellular density determined. They were then diluted to 400000 cells/ml and 25 μl-aliquots dispensed into the wells of 96-well plates. For measurement, 25 μl of test compound in assay buffer was added to the wells, followed by incubation for 30 minutes at room temperature.
`CCCCCCCCCCCCCCCCCC(=O)N[C@@H](CCC(=O)NCCCC[C@H](NC(=O)[C@H](CCC(N)=O)NC(=O)[C@@H](NC(=O)[C@H](CO)NC(=O)[C@H](CC(C)C)NC(=O)[C@H](CC(=O)O)NC(=O)[C@H](CO)NC(=O)[C@@H](NC(=O)[C@H](Cc1ccccc1)NC(=O)[C@@H](NC(=O)CNC(=O)[C@H](CCC(=O)O)NC(=O)C(C)(C)NC(=O)[C@@H](N)Cc1ccc(O)cc1)[C@@H](C)O)[C@@H](C)O)[C@@H](C)CC)C(=O)N[C@@H](CCC(=O)O)C(=O)N[C@@H](CCCCN)C(=O)N[C@@H](CCCNC(=N)N)C(=O)N[C@@H](C)C(=O)N[C@@H](C)C(=O)N[C@@H](CCC(N)=O)C(=O)N[C@@H](CCC(=O)O)C(=O)N[C@@H](Cc1ccccc1)C(=O)N[C@H](C(=O)N[C@@H](CCC(=O)O)C(=O)N[C@@H](Cc1c[nH]c2ccccc12)C(=O)N[C@@H](CC(C)C)C(=O)N[C@@H](CCCCN)C(=O)N[C@@H](CC(N)=O)C(=O)N[C@H](C(=O)NCC(=O)N1CCC[C@H]1C(=O)N[C@@H](CO)C(=O)N[C@@H](CO)C(=O)NCC(=O)N[C@@H](C)C(=O)N1CCC[C@H]1C(=O)N1CCC[C@H]1C(=O)N1CCC[C@H]1C(=O)N[C@@H](CO)C(N)=O)[C@@H](C)O)[C@@H](C)CC)C(=O)O` [SEQ ID NO: 19, Y-Aib-E-G-T-F-T-S-D-L-S-I-Q-K(γE-x70)-EKRAAQEFIEWLKNTGPSSGAPPPS-NH2] (H-Y[Aib]EGTFTSDLSIQK([γGlu-Stearoyl])EKRAAQEFIEWLKNTGPSSGAPPPS-NH2): the EC50 came to 4 pM.
Same read-out and setting: next, `CCCCCCCCCCCCCCCC(=O)N[C@@H](CCC(=O)NCCCC[C@H](NC(=O)[C@H](CCC(N)=O)NC(=O)[C@@H](NC(=O)[C@H](CO)NC(=O)[C@H](CC(C)C)NC(=O)[C@H](CC(=O)O)NC(=O)[C@H](CO)NC(=O)[C@@H](NC(=O)[C@H](Cc1ccccc1)NC(=O)[C@@H](NC(=O)CNC(=O)[C@H](CCC(=O)O)NC(=O)C(C)(C)NC(=O)[C@@H](N)Cc1ccc(O)cc1)[C@@H](C)O)[C@@H](C)O)[C@@H](C)CC)C(=O)N[C@@H](CCC(=O)O)C(=O)N[C@@H](CO)C(=O)N[C@@H](CCCNC(=N)N)C(=O)N[C@@H](C)C(=O)N[C@@H](C)C(=O)NC(C)(C)C(=O)N[C@@H](CC(=O)O)C(=O)N[C@@H](Cc1ccccc1)C(=O)N[C@H](C(=O)N[C@@H](CCC(=O)O)C(=O)N[C@@H](Cc1c[nH]c2ccccc12)C(=O)N[C@@H](CC(C)C)C(=O)N[C@@H](CCCCN)C(=O)N[C@@H](CC(N)=O)C(=O)N[C@H](C(=O)NCC(=O)N1CCC[C@H]1C(=O)N[C@@H](CO)C(=O)N[C@@H](CO)C(=O)NCC(=O)N[C@@H](C)C(=O)N1CCC[C@H]1C(=O)N1CCC[C@H]1C(=O)N1CCC[C@H]1C(=O)N[C@@H](CO)C(N)=O)[C@@H](C)O)[C@@H](C)CC)C(=O)O` [SEQ ID NO: 24, Y-Aib-E-G-T-F-T-S-D-L-S-I-Q-K(γE-x53)-E-S-R-A-A-Aib-D-F-I-E-W-L-K-N-T-G-P-S-S-G-A-P-P-P-S-NH2] (H-Y[Aib]EGTFTSDLSIQK([γGlu-Palmitoyl])ESRAA[Aib]DFIEWLKNTGPSSGAPPPS-NH2): 13.5 pM; `CCCCCCCCCCCCCCCC(=O)N[C@@H](CCC(=O)NCCCC[C@H](NC(=O)[C@H](CCC(N)=O)NC(=O)[C@@H](NC(=O)[C@H](CO)NC(=O)[C@H](CC(C)C)NC(=O)[C@H](CC(=O)O)NC(=O)[C@H](CO)NC(=O)[C@@H](NC(=O)[C@H](Cc1ccccc1)NC(=O)[C@@H](NC(=O)CNC(=O)[C@H](CCC(N)=O)NC(=O)C(C)(C)NC(=O)[C@@H](N)Cc1ccc(O)cc1)[C@@H](C)O)[C@@H](C)O)[C@@H](C)CC)C(=O)N[C@@H](CC(=O)O)C(=O)N[C@@H](CCCCN)C(=O)N[C@@H](CCCNC(=N)N)C(=O)N[C@@H](C)C(=O)N[C@@H](C)C(=O)N[C@@H](CCC(N)=O)C(=O)N[C@@H](CC(=O)O)C(=O)N[C@@H](Cc1ccccc1)C(=O)N[C@H](C(=O)N[C@@H](CCC(=O)O)C(=O)N[C@@H](Cc1c[nH]c2ccccc12)C(=O)N[C@@H](CC(C)C)C(=O)N[C@@H](CCCCN)C(=O)N[C@@H](C)C(=O)NCC(=O)NCC(=O)N1CCC[C@H]1C(=O)N[C@@H](CO)C(=O)N[C@@H](CO)C(=O)NCC(=O)N[C@@H](C)C(=O)N1CCC[C@H]1C(=O)N1CCC[C@H]1C(=O)N1CCC[C@H]1C(=O)N[C@@H](CO)C(N)=O)[C@@H](C)CC)C(=O)O` [SEQ ID NO: 28, Y-Aib-Q-G-T-F-T-S-D-L-S-I-Q-K(γE-x53)-DKRAAQDFIEWLKAGGPSSGAPPPS-NH2] (H-Y[Aib]QGTFTSDLSIQK([γGlu-Palmitoyl])DKRAAQDFIEWLKAGGPSSGAPPPS-NH2): 3.2 pM; `CCCCCCCCCCCCCCCC(=O)N[C@@H](CCC(=O)NCCCC[C@H](NC(=O)[C@H](CCC(N)=O)NC(=O)[C@@H](NC(=O)[C@H](CO)NC(=O)[C@H](CC(C)C)NC(=O)[C@H](CC(=O)O)NC(=O)[C@H](CO)NC(=O)[C@@H](NC(=O)[C@H](Cc1ccccc1)NC(=O)[C@@H](NC(=O)CNC(=O)[C@H](CCC(N)=O)NC(=O)C(C)(C)NC(=O)[C@@H](N)Cc1ccc(O)cc1)[C@@H](C)O)[C@@H](C)O)[C@@H](C)CC)C(=O)N[C@@H](CC(=O)O)C(=O)N[C@@H](CO)C(=O)N[C@@H](CCCNC(=N)N)C(=O)N[C@@H](C)C(=O)N[C@@H](C)C(=O)N[C@@H](CCC(N)=O)C(=O)N[C@@H](CCC(=O)O)C(=O)N[C@@H](Cc1ccccc1)C(=O)N[C@H](C(=O)N[C@@H](CCC(=O)O)C(=O)N[C@@H](Cc1c[nH]c2ccccc12)C(=O)N[C@@H](CC(C)C)C(=O)N[C@@H](CCCCN)C(=O)N[C@@H](C)C(=O)NCC(=O)NCC(=O)N1CCC[C@H]1C(=O)N[C@@H](CO)C(=O)N[C@@H](CO)C(=O)NCC(=O)N[C@@H](C)C(=O)N1CCC[C@H]1C(=O)N1CCC[C@H]1C(=O)N1CCC[C@H]1C(=O)N[C@@H](CO)C(N)=O)[C@@H](C)CC)C(=O)O` [SEQ ID NO: 29, Y-Aib-Q-G-T-F-T-S-D-L-S-I-Q-K(γE-x53)-DSRAAQEFIEWLKAGGPSSGAPPPS-NH2] (H-Y[Aib]QGTFTSDLSIQK([γGlu-Palmitoyl])DSRAAQEFIEWLKAGGPSSGAPPPS-NH2): 7 pM.
Turning to `CCCCCCCCCCCCCCCC(=O)N[C@@H](CCC(=O)NCCCC[C@H](NC(=O)[C@H](CCC(N)=O)NC(=O)[C@@H](NC(=O)[C@H](CO)NC(=O)[C@H](CC(C)C)NC(=O)[C@H](CC(=O)O)NC(=O)[C@H](CO)NC(=O)[C@@H](NC(=O)[C@H](Cc1ccccc1)NC(=O)[C@@H](NC(=O)CNC(=O)[C@H](CCC(=O)O)NC(=O)C(C)(C)NC(=O)[C@@H](N)Cc1ccc(O)cc1)[C@@H](C)O)[C@@H](C)O)[C@@H](C)CC)C(=O)N[C@@H](CCC(=O)O)C(=O)N[C@@H](CO)C(=O)N[C@@H](CCCNC(=N)N)C(=O)N[C@@H](C)C(=O)N[C@@H](C)C(=O)N[C@@H](CCC(N)=O)C(=O)N[C@@H](CCC(=O)O)C(=O)N[C@@H](Cc1ccccc1)C(=O)N[C@H](C(=O)N[C@@H](CCC(=O)O)C(=O)N[C@@H](Cc1c[nH]c2ccccc12)C(=O)N[C@@H](CC(C)C)C(=O)N[C@@H](CCCCN)C(=O)N[C@@H](C)C(=O)NCC(=O)NCC(=O)N1CCC[C@H]1C(=O)N[C@@H](CO)C(=O)N[C@@H](CO)C(=O)NCC(=O)N[C@@H](C)C(=O)N1CCC[C@H]1C(=O)N1CCC[C@H]1C(=O)N1CCC[C@H]1C(=O)N[C@@H](CO)C(N)=O)[C@@H](C)CC)C(=O)O` [SEQ ID NO: 39, Y-Aib-E-G-T-F-T-S-D-L-S-I-Q-K(γE-x53)-ESRAAQEFIEWLKAGGPSSGAPPPS-NH2] (H-Y[Aib]EGTFTSDLSIQK([γGlu-Palmitoyl])ESRAAQEFIEWLKAGGPSSGAPPPS-NH2), the EC50 is 4.3 pM.

The assay is the same for the next values; noted with them: Table 8; functionalized vs non-functionalized position 14; read-out: EC50 hGLP-1 R.
As to `CC[C@H](C)[C@H](NC(=O)[C@H](Cc1ccccc1)NC(=O)[C@H](CC(=O)O)NC(=O)[C@H](CCC(N)=O)NC(=O)[C@H](C)NC(=O)[C@H](C)NC(=O)[C@H](CCCNC(=N)N)NC(=O)[C@H](CO)NC(=O)[C@H](CCC(=O)O)NC(=O)[C@H](CC(C)C)NC(=O)[C@H](CCC(N)=O)NC(=O)[C@@H](NC(=O)[C@H](CO)NC(=O)[C@H](CC(C)C)NC(=O)[C@H](CC(=O)O)NC(=O)[C@H](CO)NC(=O)[C@@H](NC(=O)[C@H](Cc1ccccc1)NC(=O)[C@@H](NC(=O)CNC(=O)[C@H](CCC(N)=O)NC(=O)C(C)(C)NC(=O)[C@@H](N)Cc1ccc(O)cc1)[C@@H](C)O)[C@@H](C)O)[C@@H](C)CC)C(=O)N[C@@H](CCC(=O)O)C(=O)N[C@@H](Cc1c[nH]c2ccccc12)C(=O)N[C@@H](CC(C)C)C(=O)N[C@@H](CCCCN)C(=O)N[C@@H](C)C(=O)NCC(=O)NCC(=O)N1CCC[C@H]1C(=O)N[C@@H](CO)C(=O)N[C@@H](CO)C(=O)NCC(=O)N[C@@H](C)C(=O)N1CCC[C@H]1C(=O)N1CCC[C@H]1C(=O)N1CCC[C@H]1C(=O)N[C@@H](CO)C(N)=O` [SEQ ID NO: 40, Y-Aib-QGTFTSDLSIQLESRAAQDFIEWLKAGGPSSGAPPPS-NH2, reference compound] (H-Y[Aib]QGTFTSDLSIQLESRAAQDFIEWLKAGGPSSGAPPPS-NH2; N-terminus assumed), the concentration giving a half-maximal response (EC50) stood at 3.2 pM.
